{"source": "patent US20260115202A1", "about": "“TOPICAL COMPOSITIONS COMPRISING AN ESTETROL COMPONENT AND USE OF SAID COMPOSITIONS FOR WOUND HEALING” (NEURALIS SA, priority 2022, published 2026)", "key": {"[1]": {"test_system": "murine dermal fibroblasts (MDF)", "experiment": "qPCR gene expression in murine dermal fibroblasts", "assay_type": "cell-based, mouse", "conditions": "MDF, 10^−7M, qPCR", "source_text": "Primary human dermal fibroblasts (HDF) were isolated from abdominal skin or leg skin. Primary neonatal normal human epidermal keratinocytes (NHEK) were purchased (Lonza). Murine dermal fibroblasts (MDF), murine epidermal keratinocytes (MEK), murine peritoneal macrophages and murine bone marrow were isolated from C57/B16 (wt). NDb (Lepr+/−) or Db (Lepr−/−) mice. Fibroblasts were isolated and cultured in DMEM supplemented with 10% heat inactivated FBS. 1% penicillin/streptomycin and 1% amphotericin B. At least 4 days prior to performing assays cells were switched to DMEM supplemented with 5% charcoal-stripped FBS. Following treatments, human and murine macrophages were collected in Trizol and RNA isolated using the Trizol plus RNA isolation kit (Invitrogen. Thermo Fisher) according to the manufacturer's instructions. RNA was reverse transcribed to cDNA using GoScript reverse transcriptase (Promega). Quantitative real-time PCR was carried out using 2×Takyon SYBR Green mastermix and a CFX Connect thermocycler. Primers for ERα and ERβ were used to explore changes in ER expression after treatment of MEK and MDF with E2 and E4. To investigate the effect of E2 and E4 on MEK differentiation and the expression of ECM proteins by MDF, primers for. Snail, keratin-1 and fibronectin, collagen I. MMP-2 and MMP-9 were used. Primers for INOS. IL-1B and Tnf-α or Ccl17 were used to assess M1/M2 polarisation status. Primers for GAPDH were used to normalise data. Relative gene expression was set to vehicle controls or M0 expression unless otherwise stated. In vitro cultured murine fibroblasts were treated with either E2, E4, DPN or PPT at 10^−7M. As previously reported. […] Next, zymography was performed on cell supernatants from HDFs treated with either E2 or E4, to evaluate the effect of E2 and E4 on cell-derived MMP activity. […] The magnitude of the effect (and statistical significance) was greater in cells treated with E4. No MMP9 activity was detected in any treatment group. Finally, we explored the effect of E2 and E4 on murine fibroblast expression of extracellular matrix genes, specifically collagen 1 (Colal) and fibronectin (Fn1) (FIG. 20)."}, "[2]": {"test_system": "mouse bone marrow derived macrophages (BMDM)", "experiment": "M1-polarised murine bone marrow derived macrophages, qPCR of M1 markers", "assay_type": "cell-based", "conditions": "M1 polarised BMDM, E4 10^−7M, preliminary", "protocol": "Bones were flushed with DMEM supplemented with 1% penicillin/streptomycin and 1% amphotericin B. Bone marrow cells were seeded into 12- or 6-well plates at 1×10^6 cells/ml in DMEM supplemented with 10% FBS and 10% L929-conditioned medium to induce differentiation. After 7-10 days, differentiated macrophages were treated with 10^−7M E2 or E4 in serum free growth medium for 16 hours and polarised to M1-type cells using 100 ng/ml IFN-γ and 1 μg/ml LPS. Following 6- or 24-hours polarisation cells were collected for RNA isolation or flow cytometry.\nFollowing treatments, human and murine macrophages were collected in Trizol and RNA isolated using the Trizol plus RNA isolation kit (Invitrogen. Thermo Fisher) according to the manufacturer's instructions. RNA was reverse transcribed to cDNA using GoScript reverse transcriptase (Promega). Quantitative real-time PCR was carried out using 2×Takyon SYBR Green mastermix and a CFX Connect thermocycler. Primers for ERα and ERβ were used to explore changes in ER expression after treatment of MEK and MDF with E2 and E4. To investigate the effect of E2 and E4 on MEK differentiation and the expression of ECM proteins by MDF, primers for. Snail, keratin-1 and fibronectin, collagen I. MMP-2 and MMP-9 were used. Primers for INOS. IL-1B and Tnf-α or Ccl17 were used to assess M1/M2 polarisation status. Primers for GAPDH were used to normalise data. Relative gene expression was set to vehicle controls or M0 expression unless otherwise stated.\nFor follow up experiments murine bone marrow derived monocytes were isolated, differentiated (L929 media) and polarised to a pro-inflammatory M1 phenotype (IFN-γ and LPS: for 6 or 24 hours), and co-treated with either E2 or E4 at the optimal concentration identified in THP1 cells (10^−7: FIG. 24). […] Experiments were then undertaken with murine bone marrow derived monocytes differentiated to macrophages with 30 ng/ml MCSF, as opposed to L929 conditioned media."}, "[3]": {"test_system": "human dermal fibroblasts (HDF)", "experiment": "Scratch wound assay, human dermal fibroblasts", "assay_type": "cell-based", "conditions": "HDF, 24 hours, preliminary", "source_text": "Primary human dermal fibroblasts (HDF) were isolated from abdominal skin or leg skin. Primary neonatal normal human epidermal keratinocytes (NHEK) were purchased (Lonza). Murine dermal fibroblasts (MDF), murine epidermal keratinocytes (MEK), murine peritoneal macrophages and murine bone marrow were isolated from C57/B16 (wt). NDb (Lepr+/-) or Db (Lepr-/-) mice. Fibroblasts were isolated and cultured in DMEM supplemented with 10% heat inactivated FBS. 1% penicillin/streptomycin and 1% amphotericin B. At least 4 days prior to performing assays cells were switched to DMEM supplemented with 5% charcoal-stripped FBS. Cells were seeded into 24 well plates and cultured to form a confluent monolayer, and then scratched with a 1 ml pipette tip. Wells were treated with E2, E4 and/or various estrogen receptor agonists and antagonists. […] A vehicle control containing the equivalent concentration of EtOH and/or DMSO was included, in addition to an untreated negative control. All treatments were diluted to working concentrations in media supplemented with 2% charcoal-stripped FBS. To visualise scratches at the defined endpoint, cells were stained with crystal violet and imaged on a Nikon E400 brightfield microscope. Scratch closure was determined from multiple independent measurements per well. Scratch assays were performed to quantify the effect of E2 and E4 at varying concentrations on HDF migration (FIG. 14). […] 10^-7M and 10^-6M (152%. 147% and 142% respectively). Thus, both E2 and E4 optimally stimulated fibroblast scratch wound closure at 10^-8M, with the higher magnitude of stimulation observed following E2 treatment. Next, an additional experiment was performed using HDF to a) further confirm the effects of E2 and E4 in fibroblasts from a fifth donor and b) explore the relative effect of including CS-FBS in the cell culture media. Three identical sets of scratch assays were performed (comparing vehicle to E2 or E4 treatment at 10^-7M) in DMEM containing either 2% CS-FBS. 0% FBS or 2% FBS (not CS)."}}, "data": [{"smiles": "N#CC(Cc1ccc(O)cc1)c1ccc(O)cc1", "note": "(stereo not shown) [DPN]", "values": [{"measurement": "expression of ERα and ERβ", "setting": "[1]", "value": "increased ERβ expression"}]}, {"smiles": "Cc1c(-c2ccc(O)cc2)nn(-c2ccc(O)cc2)c1-c1ccc(OCCN2CCCCC2)cc1", "note": "[MPP, reference compound]", "values": [{"measurement": "effect of ER antagonist co-treatment on E4-mediated reduction in IL1-β", "setting": "[2]", "value": "appears to block E4-induced scratch closure and E4-mediated reduction in IL1-β"}, {"measurement": "effect of ER antagonist co-treatment on E4-induced scratch closure", "setting": "[3]", "value": "appears to block E4-induced scratch closure"}]}, {"smiles": "CCCc1c(-c2ccc(O)cc2)nn(-c2ccc(O)cc2)c1-c1ccc(O)cc1", "note": "[PPT]", "values": [{"measurement": "expression of ERα and ERβ", "setting": "[1]", "value": "increased ERα"}]}]}
